In patent US8802686B2, “Sulfone-substituted anilinopyrimidine derivatives as CDK inhibitors, the production thereof, and use as a medicine” (Bayer Intellectual Property GmbH, priority 2008, dated 2014):
Like-named read-outs stand apart in the source and are kept apart here.

Tests used:
CDK1/CycB = CDK1/CycB (Homo sapiens (Human), UniProt P06493); experiment: CDK1/CycB kinase assay (Assay 1); format: biochemical; conditions: read-out: CDK1/CycB (Assay 1) Concentration of the half-maximal inhibition of the enzyme activity, IC50
Description: CDK1/CycB (200 ng/measuring point) was incubated for 10 min at 22° C. in the presence of different concentrations of test substances (0 and within the range 0.001-10 μM) in assay buffer [50 mM Tris/HCl pH 8.0; 10 mM MgCl2; 0.1 mM Na ortho-vanadate; 1.0 mM dithiothreitol; 0.5 μM adenosine trisphosphate (ATP); 10 μg/measuring point histone IIIS; 0.2 μCi/measuring point ^33P-gamma ATP; 0.05% NP40; 1.25% dimethyl sulphoxide]. The reaction was stopped by adding EDTA solution (250 mM; pH 8.0; 15 μl/measuring point).
From each reaction mixture, 15 μl were applied to P30 filter strips (Wallac), and unincorporated ^33P-ATP was removed by washing the filter strips three times, for 10 min in each case, in 0.5% phosphoric acid. After drying the filter strips for 1 hour at 70°, the filter strips were covered with scintillator strips (MeltiLex™ A, Wallac) and stoved for 1 hour at 90° C. The amount of incorporated ^33P (substrate phosphorylation) was determined by scintillation measurement in a gamma-radiation measuring instrument (Wallac). […] The IC50 values were determined by means of a 4-parameter fit using the company's own software.

CDK2/CycE = CDK2/CycE (Homo sapiens (Human), UniProt P24941); experiment: CDK2/CycE kinase assay (Assay 2); format: biochemical; conditions: read-out: CDK2/CycE (Assay 2) Concentration of the half-maximal inhibition of the enzyme activity, IC50
Description: Recombinant CDK2 and CycE-GST fusion proteins, purified from baculovirus-infected insect cells (Sf9), were purchased from ProQinase GmbH, Freiburg. Histone IIIS, which was used as kinase substrate, was purchased from Sigma.
CDK2/CycE (50 mg/measuring point) was incubated for 10 min at 22° C. in the presence of different concentrations of test substances (0 μM, and within the range 0.001-10 μM) in assay buffer [50 mM Tris/HCl pH 8.0; 10 mM MgCl2; 0.1 mM Na ortho-vanadate; 1.0 mM dithiothreitol; 0.5 μM adenosine trisphosphate (ATP); 10 μg/measuring point histone IIIS; 0.2 μCi/measuring point ^33P-gamma ATP; 0.05% NP40; 1.25% dimethyl sulphoxide]. The reaction was stopped by adding EDTA solution (250 mM; pH 8.0; 15 μl/measuring point).
From each reaction mixture, 15 μl were applied to P30 filter strips (Wallac), and unincorporated ^33P-ATP was removed by washing the filter strips three times, for 10 min in each case, in 0.5% phosphoric acid. After drying the filter strips for 1 hour at 70° C., the filter strips were covered with scintillator strips (MeltiLex™ A, Wallac) and stoved for 1 hour at 90° C. The amount of incorporated ^33P (substrate phosphorylation) was determined by scintillation measurement in a gamma-radiation measuring instrument (Wallac). […] The IC50 values were determined by means of a 4-parameter fit using the company's own software.

[1] = test system: MCF7, hormone-independent human breast carcinoma cells; experiment: Proliferation assay (Assay 5), MCF7; format: cell-based; conditions: read-out: Concentration of the half-maximal inhibition of the cell proliferation, IC50
Description: Cultivated human tumour cells (MCF7, hormone-independent human breast carcinoma cells, acquired from ATCC HTB22; NCI-H460, human non-small-cell lung carcinoma cells, ATCC HTB-177; DU 145, hormone-independent human prostrate carcinoma cells, ATCC HTB-81; HeLa-MaTu, human cervix carcinoma cells, EPO-GmbH, Berlin; HeLa-MaTu-MDR, multiple drug-resistant human cervix carcinoma cells, EPO-GmbH, Berlin; Caco-2, human colon carcinoma cells, ATCC HTB-37; B16F10, murine melanoma cell, ATCC CRL-6475) were plated out at a density of ca. 1000-5000 cells/measuring point, depending on the growth rate of the particular cells, in a 96-well multititre plate in 200 μl of the corresponding growth medium. After 24 hours, the cells of one plate (zero-point plate) were stained with crystal violet (see below), whereas the medium of the other plates was replaced with fresh culture medium (200 μl), to which the test substances had been added at different concentrations (0 μM, and in the range 0.003-3 μM; the final concentration of the solvent dimethyl sulphoxide was 0.5%). The cells were incubated for 4 days in the presence of the test substances. Cell proliferation was determined by staining the cells with crystal violet: the cells were fixed by adding 20 μl/measuring point of an 11% glutaraldehyde solution for 15 min at room temperature. After washing the fixed cells with water three times, the plates were dried at room temperature. The cells were stained by adding 100 μl/measuring point of a 0.1% crystal violet solution (pH adjusted to pH 3 by adding acetic acid). After washing the stained cells with water three times, the plates were dried at room temperature. The dye was dissolved by adding 100 μl/measuring point of a 10% acetic acid solution. The extinction was determined photometrically at a wavelength of 595 nm. […] The IC50 values were determined by means of a 4-parameter fit using the company's own software.

CDK1/CycB, sequence (P06493 whole entry): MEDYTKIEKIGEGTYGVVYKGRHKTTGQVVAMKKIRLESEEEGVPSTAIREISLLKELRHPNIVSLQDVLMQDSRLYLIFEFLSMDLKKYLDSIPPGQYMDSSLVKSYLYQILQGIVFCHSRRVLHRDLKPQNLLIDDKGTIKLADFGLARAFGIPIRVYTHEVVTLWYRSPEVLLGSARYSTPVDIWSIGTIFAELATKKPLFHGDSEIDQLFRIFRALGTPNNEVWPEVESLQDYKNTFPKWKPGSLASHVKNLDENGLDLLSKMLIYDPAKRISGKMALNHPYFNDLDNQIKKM
CDK1/CycB, sequence (P14635 whole entry partner): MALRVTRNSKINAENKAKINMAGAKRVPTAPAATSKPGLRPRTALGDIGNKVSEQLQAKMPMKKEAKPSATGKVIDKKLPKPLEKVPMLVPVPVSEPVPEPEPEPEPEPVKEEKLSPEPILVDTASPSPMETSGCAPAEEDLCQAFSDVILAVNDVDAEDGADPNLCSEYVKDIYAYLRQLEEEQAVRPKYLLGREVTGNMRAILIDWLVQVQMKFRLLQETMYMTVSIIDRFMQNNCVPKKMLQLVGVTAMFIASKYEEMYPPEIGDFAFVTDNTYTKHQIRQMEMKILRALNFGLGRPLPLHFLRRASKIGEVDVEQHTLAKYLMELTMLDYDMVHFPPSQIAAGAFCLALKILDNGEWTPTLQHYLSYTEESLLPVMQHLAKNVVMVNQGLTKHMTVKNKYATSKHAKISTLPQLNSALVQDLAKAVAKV

Structure (SMILES) | IC50 (CDK1/CycB) [nM] | IC50 (CDK2/CycE) [nM] | IC50 ([1]; 96 h, MCF7, 4 days) [nM] | IC50 ([1]; MCF7, 96 h) [nM]
C[C@@H](O)[C@@H](C)Oc1nc(Nc2ccc(S(=O)(=O)c3ccccc3)cc2)ncc1C(F)(F)F [Example 5, (2R,3R)-3-[2-(4-Benzenesulphonylphenylamino)-5-tri-fluoromethylpyrimidin-4-yloxy]butan-2-ol] | 41 | 36 | – | –
C[C@@H](O)[C@@H](C)Oc1nc(Nc2ccc(S(=O)(=O)C(F)F)cc2)ncc1C(F)(F)F [Example 6, (2R,3R)-3-{2-[4-(Difluoromethanesulphonyl)phenylamino]-5-trifluoromethylpyrimidin-4-yloxy}butan-2-ol] | 24 | 12 | – | –
C[C@@H](O)[C@@H](C)Oc1nc(Nc2ccc(S(=O)(=O)C3CCCC3)cc2)ncc1C(F)(F)F [Example 7, (2R,3R)-3-[2-(4-Cyclopentanesulphonylphenylamino)-5-triluoromethylpyrimidin-4-yloxy]butan-2-ol] | 23 | 21 | – | –
C=CCS(=O)(=O)c1ccc(Nc2ncc(C(F)(F)F)c(O[C@H](C)C(C)(C)O)n2)cc1 [Example 8, (R)-2-Methyl-3-{2-[4-(prop-2-ene-1-sulphonyl)phenylamino]-5-trifluoromethylpyrimidin-4-yl-oxy}butan-2-ol] | 43 | 11 | – | –
CC(C)S(=O)(=O)c1ccc(Nc2ncc(C(F)(F)F)c(O[C@H](C)[C@@H](C)O)n2)cc1 [Example 9, (2R,3R)-3-{2-[4-(Propane-2-sulphonyl)phenylamino]-5-trifluoromethylpyrimidin-4-yloxy}butan-2-ol] | 12 | 6 | – | –
C#CCS(=O)(=O)c1ccc(Nc2ncc(C(F)(F)F)c(O[C@H](C)C(C)(C)O)n2)cc1 [Example 10, (R)-2-Methyl-3-{2-[4-(prop-2-yne-1-sulphonyl)phenylamino]-5-trifluoromethylpyrimidin-4-yloxy}butan-2-ol] | 82 | 43 | – | –
C[C@@H](O)[C@@H](C)Oc1nc(Nc2ccc(S(=O)(=O)CCO)cc2)ncc1C(F)(F)F [Example 11, (2R,3R)-3-{2-[4-(2-Hydroxyethanesulphonyl)phenylamino]-5-trifluoromethylpyrimidin-4-yloxy}butan-2-ol] | 3 | 3 | – | –
COC[C@@H](C)Oc1nc(Nc2ccc(S(C)(=O)=O)cc2)ncc1C(F)(F)F [Example 12, (4-Methanesulphonylphenyl) [4-((R)-2-methoxy-1-methyl-ethoxy)-5-trifluoromethylpyrimidin-2-yl]amine] | 51 | 12 | 191 | –
C#CCOc1nc(Nc2ccc(S(C)(=O)=O)cc2)ncc1C(F)(F)F [Example 13, (4-Methanesulphonylphenyl)(4-prop-2-ynyloxy-5-trifluoromethylpyrimidin-2-yl)amine] | 130 | 25 | – | 740
CS(=O)(=O)c1ccc(Nc2ncc(C(F)(F)F)c(OCCC(F)(F)F)n2)cc1 [Example 14, (4-Methanesulphonylphenyl)[5-trifluoromethyl-4-(3,3,3-trifluoropropoxy)pyrimidin-2-yl]amine] | 740 | 94 | – | 2200
C=CCOc1nc(Nc2ccc(S(C)(=O)=O)cc2)ncc1C(F)(F)F [Example 15, (4-Allyloxy-5-trifluoromethylpyrimidin-2-yl)(4-methane-sulphonylphenyl)amine] | 280 | 49 | 1500 | –
CS(=O)(=O)c1ccc(Nc2ncc(C(F)(F)F)c(OC3CCCCC3)n2)cc1 [Example 16, (4-Cyclohexyloxy-5-trifluoromethylpyrimidin-2-yl)(4-methanesulphonylphenyl)amine] | > 1000 | 480 | 1400 | –
